What was measured:
[1] = urinary excretion of thiamine metabolites TMA and PMA and TMA/PMA ratio (LC-MS/MS of urine)
[2] = in vivo; cited from earlier work

Row | SMILES | Urinary excretion rate at lowest point during fasting ([1]; human) [nmol/h] | Oral bioavailability [2] | TMA/PMA ratio relative to its typical fasting value (transient reduction) ([1]; consumption of thiamine after a period of induced deficiency) | Ratio of TMA to PMA (TMA/PMA) in urine ([1]; human, following consumption of thiamine (100 mg) after fast and sucrose)
1 | Cc1ncc(CO)c(N)n1 [PMA] | 0.07 | – | – | –
2 | Cc1ncsc1CCO [TMA] | 0.06 | – | – | –
3 | Cc1ncc(C[n+]2csc(CCO)c2C)c(N)n1 [thiamine] | – | poor | less than 20% | 0.12

From US20130102624A1 (priority 2011, published 2013)
